Measurements as given in ChEMBL document CHEMBL1135182, “Synthesis and anti-influenza evaluation of polyvalent sialidase inhibitors bearing 4-guanidino-Neu5Ac2en derivatives” (Bioorg Med Chem Lett, 2002).
Values after ≈ are worked out from the molar mass of the structure shown. Non-standard residues stand in square brackets, D forms with d. Residues, ends and D or L forms follow the SMILES beside them. ξ: configuration not given here. *: point of attachment. X3 = CC(=O)N[C@H]1[C@H]([C@H](OCCCCCN*)[C@H](O)CO)OC(C(=O)O)=C[C@@H]1NC(=N)N; X4 = CC(=O)N[C@H]1[C@H]([C@H](OCCCCCN*)[C@H](O)CO)OC(C(=O)O)=C[C@@H]1N=C(N)N; X1 = CC(=O)N[C@H]1[C@H]([C@H](OCCN*)[C@H](O)CO)OC(C(=O)O)=C[C@@H]1NC(=N)N; X2 = CC(=O)N[C@H]1[C@H]([C@H](OCCN*)[C@H](O)CO)OC(C(=O)O)=C[C@@H]1N=C(N)N; ξE = NC(CCC(=O)O)C(=O)O; NHBn = c1ccc(CN*)cc1; NHPentyl = CCCCCN*

Assays:
[1] = system: Influenza A virus; test: Inhibitory concentration by Plaque reduction assay; format: functional, organism-based
[2] = species: Mus musculus; test: Number of survivors out of 7 tested mice at 10 days after infection with influenza A/PR/8/34 (H1N1) virus; format: functional
[3] = species: Mus musculus; test: Number of survivors out of 7 tested mice at 20 days after infection with influenza A/PR/8/34 (H1N1) virus; format: functional
[4] = system: Influenza A virus; test: Inhibitory concentration by Sialidase inhibitory assay; format: functional, organism-based
[5] = species: Mus musculus; test: Number of survivors out of 8 tested mice at 10 days after infection with influenza A/PR/8/34 (H1N1) virus; format: functional
[6] = species: Mus musculus; test: Number of survivors out of 8 tested mice at 20 days after infection, with influenza A/PR/8/34 (H1N1) virus; format: functional

Row | SMILES | IC50 [1] [ng/mL] | Survival rate [2] | Survival rate [3] | IC50 [4] [ng/mL] | Survival rate [5] | Survival rate [6]
1 | CC(=O)N[C@H]1[C@H]([C@H](OCCCCCNC(=O)CCC(N)C(=O)N[C@@H](CCC(N)=O)C(=O)N[C@@H](CCC(N)=O)C(=O)N[C@@H](CCC(N)=O)C(=O)CN[C@@H](CCC(N)=O)C(=O)N[C@@H](CCC(N)=O)C(=O)N[C@@H](CCC(N)=O)C(=O)N[C@@H](CCC(N)=O)C(=O)N[C@@H](CCC(N)=O)C(=O)N[C@@H](CCC(N)=O)C(=O)N[C@@H](CCC(N)=O)C(N)=O)[C@H](O)CO)OC(C(=O)O)=C[C@@H]1NC(=N)N (some centres undefined) | 0.072 (≈ 0.0391 nM) | 7 | 7 | 161 (≈ 87.5 nM) |  | 
2 | CC(=O)NCCO[C@@H]([C@@H]1OC(C(=O)O)=C[C@H](N=C(N)N)[C@H]1NC(C)=O)[C@H](O)CO | 5.5 (≈ 13.2 nM) |  |  | 22 (≈ 52.7 nM) |  | 
3 | CC(=O)N[C@H]1[C@H]([C@H](OCCNC(=O)CC[C@H](NC(=O)[C@H](CCC(=O)NCc2ccccc2)NC(=O)[C@H](CCC(=O)NCc2ccccc2)NC(=O)[C@H](CCC(=O)NCc2ccccc2)NC(=O)[C@@H](N)CCC(=O)NCc2ccccc2)C(=O)N[C@@H](CCC(N)=O)C(=O)N[C@@H](CCC(N)=O)C(=O)N[C@@H](CCC(N)=O)C(=O)N[C@@H](CCC(N)=O)C(=O)N[C@@H](CCC(N)=O)C(=O)N[C@@H](CCC(N)=O)C(=O)N[C@@H](CCC(N)=O)C(N)=O)[C@H](O)CO)OC(C(=O)O)=C[C@@H]1NC(=N)N (H-E(NHBn)E(NHBn)E(NHBn)E(NHBn)E(X1)QQQQQQQ-NH2) | 0.15 (≈ 0.066 nM) |  |  | 324 (≈ 143 nM) |  | 
4 | CC(=O)N[C@H]1[C@H]([C@H](OCCNC(=O)CCC(N)C(=O)N[C@@H](CCC(N)=O)C(=O)N[C@@H](CCC(N)=O)C(=O)N[C@@H](CCC(N)=O)C(N)=O)[C@H](O)CO)OC(C(=O)O)=C[C@@H]1NC(=N)N (some centres undefined) (H-[ξE](X1)QQQ-NH2) | 0.17 (≈ 0.191 nM) |  |  | 364 (≈ 410 nM) |  | 
5 | CCCCCNC(=O)CC[C@H](NC(=O)[C@@H](N)CCC(=O)NCCCCC)C(=O)N[C@@H](CCC(=O)NCCCCCO[C@@H]([C@@H]1OC(C(=O)O)=C[C@H](N=C(N)N)[C@H]1NC(C)=O)[C@H](O)CO)C(=O)N[C@@H](CCC(N)=O)C(=O)N[C@@H](CCC(N)=O)C(=O)N[C@@H](CCC(N)=O)C(=O)N[C@@H](CCC(N)=O)C(=O)N[C@@H](CCC(N)=O)C(=O)N[C@@H](CCC(N)=O)C(=O)N[C@@H](CCC(N)=O)C(=O)N[C@@H](CCC(N)=O)C(N)=O (H-E(NHPentyl)E(NHPentyl)E(X4)QQQQQQQQ-NH2) | 0.32 (≈ 0.163 nM) |  |  | 113 (≈ 57.4 nM) |  | 
6 | CC(=O)N[C@H]1[C@H]([C@H](OCCNC(=O)CCC(N)C(=O)N[C@@H](CCC(N)=O)C(=O)N[C@@H](CCC(N)=O)C(=O)N[C@@H](CCC(N)=O)C(=O)CN[C@@H](CCC(N)=O)C(=O)N[C@@H](CCC(N)=O)C(=O)N[C@@H](CCC(N)=O)C(=O)N[C@@H](CCC(N)=O)C(=O)N[C@@H](CCC(N)=O)C(=O)N[C@@H](CCC(N)=O)C(=O)N[C@@H](CCC(N)=O)C(N)=O)[C@H](O)CO)OC(C(=O)O)=C[C@@H]1NC(=N)N (some centres undefined) | 0.066 (≈ 0.0367 nM) |  |  | 114 (≈ 63.4 nM) |  | 
7 | CC(=O)N[C@H]1[C@H]([C@H](OCCCCCCCCCCNC(=O)CCC(N)C(=O)N[C@@H](CCC(N)=O)C(=O)N[C@@H](CCC(N)=O)C(=O)N[C@@H](CCC(N)=O)C(=O)CN[C@@H](CCC(N)=O)C(=O)N[C@@H](CCC(N)=O)C(=O)N[C@@H](CCC(N)=O)C(=O)N[C@@H](CCC(N)=O)C(=O)N[C@@H](CCC(N)=O)C(=O)N[C@@H](CCC(N)=O)C(=O)N[C@@H](CCC(N)=O)C(N)=O)[C@H](O)CO)OC(C(=O)O)=C[C@@H]1NC(=N)N (some centres undefined) | 2.1 (≈ 1.1 nM) |  |  | 62 (≈ 32.4 nM) |  | 
8 | CC(=O)N[C@H]1[C@H]([C@H](O)[C@H](O)CO)OC(C(=O)O)=C[C@@H]1NC(=N)N [ZANAMIVIR] |  |  |  |  | 1 | 0
9 | CC(=O)N[C@H]1[C@H]([C@H](OCCCCCNC(=O)CC[C@H](NC(=O)[C@H](CCC(=O)NCc2ccccc2)NC(=O)[C@@H](N)CCC(=O)NCc2ccccc2)C(=O)N[C@@H](CCC(N)=O)C(=O)N[C@@H](CCC(N)=O)C(=O)N[C@@H](CCC(N)=O)C(=O)N[C@@H](CCC(N)=O)C(=O)N[C@@H](CCC(N)=O)C(=O)N[C@@H](CCC(N)=O)C(=O)N[C@@H](CCC(N)=O)C(=O)N[C@@H](CCC(N)=O)C(N)=O)[C@H](O)CO)OC(C(=O)O)=C[C@@H]1NC(=N)N (H-E(NHBn)E(NHBn)E(X3)QQQQQQQQ-NH2) | 0.028 (≈ 0.014 nM) |  |  | 63 (≈ 31.4 nM) |  | 
10 | CCCCCNC(=O)CC[C@H](NC(=O)[C@H](CCC(=O)NCCCCC)NC(=O)[C@H](CCC(=O)NCCCCC)NC(=O)[C@@H](N)CCC(=O)NCCCCC)C(=O)N[C@@H](CCC(=O)NCCO[C@@H]([C@@H]1OC(C(=O)O)=C[C@H](N=C(N)N)[C@H]1NC(C)=O)[C@H](O)CO)C(=O)N[C@@H](CCC(N)=O)C(=O)N[C@@H](CCC(N)=O)C(=O)N[C@@H](CCC(N)=O)C(=O)N[C@@H](CCC(N)=O)C(=O)N[C@@H](CCC(N)=O)C(=O)N[C@@H](CCC(N)=O)C(=O)N[C@@H](CCC(N)=O)C(N)=O (H-E(NHPentyl)E(NHPentyl)E(NHPentyl)E(NHPentyl)E(X2)QQQQQQQ-NH2) | 0.1 (≈ 0.0456 nM) |  |  | 585 (≈ 267 nM) |  | 
11 | CC(=O)NCCCCCO[C@@H]([C@@H]1OC(C(=O)O)=C[C@H](N=C(N)N)[C@H]1NC(C)=O)[C@H](O)CO | 5.9 (≈ 12.8 nM) |  |  | 90 (≈ 196 nM) |  | 
